How the values were obtained:
[1] = oral administration of a single dose of 300 mg/kg and 2000 mg/kg, 14 days of observation; cited from earlier work
[2] = system: SARS-CoV-2; assay: SARS-CoV-2 cell infection assay in Vero E6 cells, intracellular ATP levels (CellTiter-Glo) and cytopathic effect

## COc1ccc(-c2cc(=O)c3c(O)cc(O)cc3o2)cc1O [diosmetin, 5,7-Dihydroxy-2-(3-hydroxy-4-methoxyphenyl)-4H-benzopyran-4-one]
[1]
  signs of toxicity or mortality: did not demonstrate any signs of toxicity or mortality
[2]; 45 µM
  duration of antiviral effect: 72 h
[2]; same as in µM, Vero E6 cells, 30 pfu SARS-CoV-2, 72h
  optimal concentration: 13.5 µg/mL
